The target of series [1] is T1, UDP-glucuronosyltransferase 1A8 (Homo sapiens, UniProt Q9HAW9).
T1 sequence (Q9HAW9 whole entry): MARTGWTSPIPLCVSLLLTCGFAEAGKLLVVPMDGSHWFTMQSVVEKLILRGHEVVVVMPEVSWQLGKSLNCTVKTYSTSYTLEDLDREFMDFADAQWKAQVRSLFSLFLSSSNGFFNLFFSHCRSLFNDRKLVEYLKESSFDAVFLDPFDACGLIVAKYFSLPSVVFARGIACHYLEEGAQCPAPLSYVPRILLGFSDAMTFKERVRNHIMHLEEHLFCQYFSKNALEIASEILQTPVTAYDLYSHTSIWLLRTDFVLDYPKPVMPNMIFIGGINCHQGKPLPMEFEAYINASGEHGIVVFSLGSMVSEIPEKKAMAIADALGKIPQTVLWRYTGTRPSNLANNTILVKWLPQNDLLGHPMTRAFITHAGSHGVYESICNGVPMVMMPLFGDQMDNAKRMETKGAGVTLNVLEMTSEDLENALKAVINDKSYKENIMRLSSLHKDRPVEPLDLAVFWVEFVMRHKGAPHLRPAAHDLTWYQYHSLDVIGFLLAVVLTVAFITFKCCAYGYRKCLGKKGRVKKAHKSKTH
Kind of series: Drug metabolism assessed as recombinant human UGT1A8 assessed as N-glucuronidation at 100 uM incubated for 60 mins by LC-MS/MS analysis. Conditions: recombinant enzyme, 1 h. It counts as ADME.

Series [2] deals with T2, UDP-glucuronosyltransferase 1A9 (Homo sapiens, UniProt O60656).
T2 sequence (O60656 whole entry): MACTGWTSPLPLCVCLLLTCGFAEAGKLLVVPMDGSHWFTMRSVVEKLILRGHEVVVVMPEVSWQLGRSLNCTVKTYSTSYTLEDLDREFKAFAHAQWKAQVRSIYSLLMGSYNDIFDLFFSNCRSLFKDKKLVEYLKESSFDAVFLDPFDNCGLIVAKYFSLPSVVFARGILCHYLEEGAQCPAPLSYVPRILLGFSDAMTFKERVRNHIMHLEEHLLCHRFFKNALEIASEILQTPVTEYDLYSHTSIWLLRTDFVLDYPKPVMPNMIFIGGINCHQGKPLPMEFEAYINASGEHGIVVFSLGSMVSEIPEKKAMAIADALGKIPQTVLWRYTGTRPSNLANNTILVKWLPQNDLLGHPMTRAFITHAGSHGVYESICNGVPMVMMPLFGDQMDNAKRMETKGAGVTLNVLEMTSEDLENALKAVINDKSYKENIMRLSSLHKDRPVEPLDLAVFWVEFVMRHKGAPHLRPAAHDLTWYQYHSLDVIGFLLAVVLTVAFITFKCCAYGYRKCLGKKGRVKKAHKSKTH
In words: Drug metabolism assessed as recombinant human UGT1A9 assessed as O-glucuronidation measured as inhibition constant at 10 to 400 uM incubated for 60 mins by LC-MS/MS analysis.

The next series deals with T3, UGT1A9 (Homo sapiens, UniProt O60656).
T3 sequence (O60656 whole entry): T2 sequence (O60656 whole entry)
In words: Drug metabolism assessed as recombinant human UGT1A9 assessed as O-glucuronidation at 10 to 400 uM incubated for 60 mins by LC-MS/MS analysis.

Series [3] concerns the target T4, UDP-glucuronosyltransferase 1A6 (Homo sapiens, UniProt P19224).
T4 sequence (P19224 whole entry): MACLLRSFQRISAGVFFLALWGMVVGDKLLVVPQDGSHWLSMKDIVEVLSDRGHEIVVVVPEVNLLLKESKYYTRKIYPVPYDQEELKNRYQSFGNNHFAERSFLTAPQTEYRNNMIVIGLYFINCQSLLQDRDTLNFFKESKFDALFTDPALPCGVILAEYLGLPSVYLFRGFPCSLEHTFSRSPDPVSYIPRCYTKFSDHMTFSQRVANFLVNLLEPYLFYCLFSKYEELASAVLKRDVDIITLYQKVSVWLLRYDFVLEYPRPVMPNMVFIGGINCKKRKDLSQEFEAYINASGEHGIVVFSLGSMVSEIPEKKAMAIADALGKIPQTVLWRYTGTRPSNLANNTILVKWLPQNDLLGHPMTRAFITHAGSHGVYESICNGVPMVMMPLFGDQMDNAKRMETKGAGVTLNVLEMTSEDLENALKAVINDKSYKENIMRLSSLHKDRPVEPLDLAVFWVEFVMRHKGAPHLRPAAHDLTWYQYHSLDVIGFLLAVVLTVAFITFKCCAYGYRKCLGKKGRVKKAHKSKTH
In words: Drug metabolism assessed as recombinant human UGT1A6 assessed as N-glucuronidation at 100 uM incubated for 60 mins by LC-MS/MS analysis. In kind it is ADME. Conditions: recombinant enzyme, 1 h.

The target of series [4] is T5, UDP-glucuronosyltransferase 1A7 (Homo sapiens, UniProt Q9HAW7).
T5 sequence (Q9HAW7 whole entry): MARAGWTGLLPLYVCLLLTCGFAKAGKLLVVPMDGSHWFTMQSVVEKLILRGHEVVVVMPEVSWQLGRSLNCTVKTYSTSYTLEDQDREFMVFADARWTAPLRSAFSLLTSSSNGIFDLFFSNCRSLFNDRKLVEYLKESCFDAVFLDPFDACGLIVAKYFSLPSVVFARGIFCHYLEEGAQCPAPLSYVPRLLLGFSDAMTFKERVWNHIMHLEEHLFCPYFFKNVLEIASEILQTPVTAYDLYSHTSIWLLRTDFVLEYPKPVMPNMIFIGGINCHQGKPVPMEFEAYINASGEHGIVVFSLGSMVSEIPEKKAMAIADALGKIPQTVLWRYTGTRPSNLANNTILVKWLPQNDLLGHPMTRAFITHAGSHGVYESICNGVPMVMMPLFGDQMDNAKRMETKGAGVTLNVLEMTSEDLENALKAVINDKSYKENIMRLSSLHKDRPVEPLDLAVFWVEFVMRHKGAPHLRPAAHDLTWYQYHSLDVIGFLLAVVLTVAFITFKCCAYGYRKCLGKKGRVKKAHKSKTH
Kind of series: Drug metabolism assessed as recombinant human UGT1A7 assessed as O-glucuronidation at 100 uM incubated for 60 mins by LC-MS/MS analysis. It counts as ADME. Conditions: recombinant enzyme, 1 h.

For series [5], the target named is T6, UDP-glucuronosyltransferase 2B7 (Homo sapiens, UniProt P16662).
T6 sequence (P16662 whole entry): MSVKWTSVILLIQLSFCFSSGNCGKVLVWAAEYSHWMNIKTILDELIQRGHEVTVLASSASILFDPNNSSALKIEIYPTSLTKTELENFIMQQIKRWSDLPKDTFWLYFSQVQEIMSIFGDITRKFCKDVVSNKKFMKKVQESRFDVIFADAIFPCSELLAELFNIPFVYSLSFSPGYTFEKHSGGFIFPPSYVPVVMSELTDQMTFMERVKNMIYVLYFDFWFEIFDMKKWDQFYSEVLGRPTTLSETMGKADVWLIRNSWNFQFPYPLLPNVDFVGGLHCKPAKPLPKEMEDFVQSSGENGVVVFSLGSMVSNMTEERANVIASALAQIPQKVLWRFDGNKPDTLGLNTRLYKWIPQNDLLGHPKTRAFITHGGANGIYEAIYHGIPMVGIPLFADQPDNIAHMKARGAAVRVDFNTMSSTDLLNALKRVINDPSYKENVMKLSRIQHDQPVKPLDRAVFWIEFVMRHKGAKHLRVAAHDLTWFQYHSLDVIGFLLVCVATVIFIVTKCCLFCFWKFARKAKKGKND
Kind of series: Drug metabolism assessed as recombinant human UGT2B7 assessed as O-glucuronidation measured as inhibition constant at 10 to 400 uM incubated for 60 mins by LC-MS/MS analysis.

On to `O=C(CCCN1CCC(O)(c2ccc(Cl)cc2)CC1)c1ccc(F)cc1` [HALOPERIDOL], for which the Drug metabolism entry in series [1], in series [3] and in series [4] was “metabolite_not_detected” each time. Besides, the figures for the Ki in series [2] and in series [5] were 344 µM and 590 µM, respectively. In addition, the Km at 1 h, 400 µM on UGT1A9 is 174 µM.

As a reminder, the Ki is the equilibrium dissociation constant of an inhibitor or competing ligand from its target. As usually defined, the Km is the concentration of substrate that gives half-maximal velocity.

(Values after ChEMBL document CHEMBL3526000 (Drug Metab Dispos, 2012).)
